Tests used:
[1] = system: CCAAT enhancer binding protein α (C/EBPα); test: C/EBPα gene expression in muscle tissue of db/db mice; type: in vivo, db/db diabetic mouse model; conditions: db/db mice muscle tissue RNA, 2.5 mg/kg intraperitoneally, 8 weeks
Protocol: (§1) It was confirmed whether the antidiabetic peptide relieves diabetes mellitus induced by leptin receptor defects. As an animal model, 5-week-old C57BLKS/J-db/db male mice were provided by Central Lab. Animal Inc., fed a normal diet, and used after an adaptation period of one week. The breeding environment was maintained at 18 to 24° C. and a humidity of 50 to 60%, and the animals were given free access to normal feed and water during both the adaptation period and the experimental period. Mice that completed the adaptation period were divided into a control (intraperitoneal injection) and a peptide administration group. PBS and antidiabetic peptides (Nos. 7 and 8; 2.5 mg/kg) were intraperitoneally administered to the control and peptide administration groups, respectively, for a total of 8 weeks.
(§2) Various tissue examinations were performed on a db/db diabetic mouse model to confirm the efficacy of relieving diabetic complications. First, in order to confirm muscle loss-related effects, RNA was isolated from muscle tissue and the expression levels of muscle loss-related genes were confirmed. […]

[2] = system: peroxisome proliferator-activated receptor α (PPARα); test: PPARα gene expression in muscle tissue of db/db mice; type: in vivo, db/db diabetic mouse model; conditions: db/db mice muscle tissue RNA, 2.5 mg/kg intraperitoneally, 8 weeks
Protocol: as §1, §2

obese mouse model = test: Glucose tolerance in high-fat-diet obese mouse model; type: in vivo, C57BL/6N male mice; conditions: obese mice, 2.5 mg/kg
Protocol: 5-week-old C57BL/6N male mice were obtained from Orient Bio, fed a normal diet, and used after an adaptation period of one week. The breeding environment was maintained at 18 to 24° C. and a humidity of 50 to 60%, and the animals were given free access to feed and water during both the adaptation period and the experimental period. After the one-week adaptation period, the mice were induced to become obese through a high-fat diet to induce impaired glucose tolerance.
The mice in which obesity was induced were divided into a control and an experimental group. All mice were fasted for 12 hours, and PBS and a peptide (No. 1, 7, or 8; 2.5 mg/kg) were administered to the control and the experimental group, respectively. One hour later, a 20% glucose solution was intraperitoneally injected, and blood collected at each time period was analyzed using a blood glucose analyzer.

[3] = system: adipocyte protein 2 (AP2); test: AP2 gene expression in muscle tissue of db/db mice; type: in vivo, db/db diabetic mouse model; conditions: db/db mice muscle tissue RNA, 2.5 mg/kg intraperitoneally, 8 weeks
Protocol: as §1, §2

[4] = system: muscle RING Finger-1 (Murf-1); test: Murf-1 gene expression in muscle tissue of db/db mice; type: in vivo, db/db diabetic mouse model; conditions: db/db mice muscle tissue RNA, 2.5 mg/kg intraperitoneally, 8 weeks
Protocol: as §1, §2

S6 (mTOR marker) = test: S6 phosphorylation in L6 skeletal muscle cells (western blotting); type: cell-based; conditions: 100 nM, 1 hour; for phosphorylation of S6 (mTOR marker): FIG. 8
Protocol: (§3) L6 skeletal muscle cells were cultured in a 6-well plate and then starved with 0.5% FBS. Thereafter, the cells were treated with an antidiabetic peptide at a concentration of 100 nM for 1 hour, proteins were collected, and then western blotting was performed.

FoxO1 = FoxO1 phosphorylation and expression in L6 skeletal muscle cells (western blotting); type: cell-based; conditions: 100 nM, 1 hour
Protocol: as §3

[5] = system: glucose transporter type 4 (GLUT4); test: GLUT4 translocation to the cell membrane in C2C12 skeletal muscle cells; type: cell-based; conditions: 100 nM, 1 hour, FIG. 3: Nos. 1 to 8 and insulin
Protocol: Similarly, in order to further verify the function of promoting glucose metabolism by antidiabetic peptide treatment, the degree of expression of a glucose transporter type 4 (GLUT4) glucose receptor, which plays an important role in glucose uptake, in the cell membrane was measured. It is known that GLUT4 moves from the cytoplasm to the cell membrane to promote sugar metabolism, and thus the expression level thereof increases. To confirm this, C2C12 skeletal muscle cells were starved with 0.5% FBS and then treated with the peptide and insulin, which is a positive control, at a concentration of 100 nM for 1 hour. Cells were fixed with 4% paraformaldehyde, incubated with a GLUT4-specific antibody at 37° C. for 30 minutes, reacted with an o-phenylenediamine (OPD) solution, and absorbance was measured and compared with that of the control.

AGSIREAGGAFGKREQAEEERYFR (listed as Homo sapiens) [No. 7]
C/EBPα gene expression change [1]: −18.6% | PPARα gene expression change [2]: +94.1% | change in blood sugar over time (GLUAUC) reduced compared to the control (obese mouse model; after baseline correction): 31.1% | AP2 gene expression change [3]: −52.5% | Murf-1 gene expression change [4]: −90.1% | phosphorylation of S6 (mTOR marker) (S6 (mTOR marker)): increased

AQSREQLAALKK (listed as Homo sapiens) [No. 5]
phosphorylation of S6 protein, increase (S6 (mTOR marker)): 494%

EQAEEER (listed as Homo sapiens) [No. 2]
phosphorylation of S6 protein, increase (S6 (mTOR marker)): 365%

EQAEEERYFR (listed as Homo sapiens) [No. 4]
phosphorylation of S6 protein, increase (S6 (mTOR marker)): 224%

REAGGAFGKR (listed as Homo sapiens) [No. 3]
phosphorylation of S6 (mTOR marker) (S6 (mTOR marker)): increased

VDRGAGSIREAGGAFGKREQAEEERYFR (listed as Homo sapiens) [No. 8]
C/EBPα gene expression change [1]: −45.5% | PPARα gene expression change [2]: +12.9% | blood sugar metabolism after glucose injection, baseline corrected, compared to the control (obese mouse model; fasted 12 hours, 20% glucose intraperitoneally one hour later, FIG. 4 left): significantly improving | AP2 gene expression change [3]: −54.7% | Murf-1 gene expression change [4]: −36.0% | phosphorylation of S6 protein, increase (S6 (mTOR marker)): 414%

YFR (listed as Homo sapiens) [No. 1]
expression level of total FoxO1 (FoxO1): decreased | phosphorylation of FoxO1 (FoxO1; FIG. 9: Nos. 1 to 8): increased | phosphorylation of S6 protein, increase (S6 (mTOR marker)): 188%

YFRAQSREQLAALKKHH (listed as Homo sapiens) [No. 6]
phosphorylation of S6 (mTOR marker) (S6 (mTOR marker)): increased

insulin
GLUT4 translocation compared to the control [5]: significant GLUT4 translocation

— patent US20240335499A1, “PEPTIDE HAVING ANTIDIABETIC ACTIVITY AND USE THEREOF” (MEDI&GENE INC., priority 2021, published 2024)
